From patent publication US10138254B2, “Bicyclic compounds as pest control agents” (BAYER CROPSCIENCE AKTIENGESELLSCHAFT, priority 2014, dated 2018)
Read-outs that look alike come from different tables or passages of the source.

Key:
[1] = log P by HPLC on reversed-phase (C18) columns, OECD Guideline 117; type: physicochemical; conditions: for chromatographic logP: reversed-phase (C18) HPLC column
Method: The log P values were determined in accordance with OECD Guideline 117 (EC Directive 92/69/EEC) by HPLC (high-performance liquid chromatography) using reversed-phase (RP) columns (C18), by the following methods: [a] The LC-MS determination in the acidic range is carried out at pH 2.7 with 0.1% aqueous formic acid and acetonitrile (contains 0.1% formic acid) as eluents; linear gradient from 10% acetonitrile to 95% acetonitrile. [b] LC-MS determination in the neutral range is effected at pH 7.8 with 0.001 molar aqueous ammonium hydrogencarbonate solution and acetonitrile as eluents; linear gradient from 10% acetonitrile to 95% acetonitrile. Calibration is carried out using unbranched alkan-2-ones (having 3 to 16 carbon atoms) with known log P values (log P values determined on the basis of the retention times by linear interpolation between two successive alkanones).

[2] = system: green peach aphid (Myzus persicae); assay: Myzus persicae spray test (Chinese cabbage leaf discs); type: in vivo; conditions: application rate 500 g/ha, after 6 days, 100% = all aphids killed; for pest or weed control at 500 g/ha: Myzus persicae, foliar, 144 h, read-out: efficacy
Method: Myzus persicae—Spray Test Solvent: 78 parts by weight of acetone • • 1.5 parts by weight of dimethylformamide Emulsifier: alkylaryl polyglycol ether To produce a suitable active ingredient formulation, 1 part by weight of active ingredient is dissolved with the specified parts by weight of solvent and made up with water containing an emulsifier concentration of 1000 ppm until the desired concentration is attained. To produce further test concentrations, the formulation is diluted with emulsifier-containing water. Discs of Chinese cabbage leaves (Brassica pekinensis) infested by all stages of the green peach aphid (Myzus persicae) are sprayed with an active ingredient formulation of the desired concentration. After 6 days, the efficacy in % is determined. 100% means that all the aphids have been killed; 0% means that no aphids have been killed.

[3] = system: greenhouse red spider mite (Tetranychus urticae); assay: Tetranychus urticae spray test, OP-resistant (bean leaf discs); type: in vivo; conditions: application rate 500 g/ha, after 6 days, 100% = all spider mites killed
Method: Tetranychus urticae—Spray Test, OP-Resistant
Solvent: 78.0 parts by weight of acetone • • 1.5 parts by weight of dimethylformamide
Emulsifier: alkylaryl polyglycol ether
To produce a suitable active ingredient formulation, 1 part by weight of active ingredient is dissolved with the specified parts by weight of solvent and made up with water containing an emulsifier concentration of 1000 ppm until the desired concentration is attained. To produce further test concentrations, the formulation is diluted with emulsifier-containing water.
Discs of bean leaves (Phaseolus vulgaris) infested with all stages of the greenhouse red spider mite (Tetranychus urticae) are sprayed with an active ingredient formulation of the desired concentration.
After 6 days, the efficacy in % is determined. 100% means that all the spider mites have been killed; 0% means that no spider mites have been killed.

[4] = acidic range, pH 2.7, 0.1% aqueous formic acid and acetonitrile
[5] = neutral range, pH 7.8, 0.001 molar aqueous ammonium hydrogencarbonate and acetonitrile
[6] = acidic range, pH 2.7, 0.1% aqueous formic acid and acetonitrile, read-out: LogP[a]
[7] = neutral range, pH 7.8, 0.001 molar aqueous ammonium hydrogencarbonate and acetonitrile, read-out: logP[b]

Row | Compound | LogP[a] [1, 4] | logP[b] [1, 5] | chromatographic logP [1, 6] | chromatographic logP [1, 7] | pest or weed control at 500 g/ha [2] | also measured
1 | CC[S+]([O-])c1ccc(-c2cnc3nc(-c4ccc[n+]([O-])c4)sc3c2)cc1 (stereo not shown) [Example 13] | 1.85 | 1.85 | – | – | – | efficacy [2]: 90%
2 | Clc1ccccc1-c1cnc2nc(-c3cccnc3)sc2c1 [Example 6] | 2.77 | 2.78 | – | – | – | efficacy [2]: 100%
3 | Cc1cc(C)c([S+]([O-])CC(F)(F)F)cc1-c1cnc2nc(-c3cccnc3)sc2c1 (stereo not shown) [Example 20, 6-{2,4-Dimethyl-5-[(2,2,2-trifluoroethyl)sulphinyl]phenyl}-2-(pyridin-3-yl)[1,3]thiazolo[4,5-b]pyridine] | – | – | 2.54 | 2.52 | 90% | –
4 | Cc1cc(F)c(-c2cnc3nc(-c4cccnc4)sc3c2)cc1[S+]([O-])CC(F)(F)F (stereo not shown) [Example 23, 6-{2-Fluoro-4-methyl-5-[(2,2,2-trifluoroethyl)sulphinyl]phenyl}-2-(pyridin-3-yl)[1,3]thiazolo[4,5-b]pyridine] | – | – | 2.5 | 2.46 | 90% | –
5 | CC[S+]([O-])c1ccccc1-c1cnc2nc(-c3cccnc3)sc2c1 (stereo not shown) [Example 15, 6-[2-(Ethylsulphinyl)phenyl]-2-(pyridin-3-yl)[1,3]thiazolo[4,5-b]pyridine] | – | – | 1.58 | 1.59 | – | –
6 | Cc1ccc(-c2cnc3nc(-c4cccnc4)sc3c2)cc1SCC(F)(F)F [Example 17] | 3.74 | 3.68 | – | – | – | efficacy [2]: 90%
7 | Clc1cccc(-c2cnc3nc(-c4cccnc4)sc3c2)c1 [Example 7, 6-(3-Chlorophenyl)-2-(pyridin-3-yl)[1,3]thiazolo[4,5-b]pyridine] | – | – | 2.98 | 3.01 | 100% | –
8 | Cc1cc(C)c(-c2cnc3nc(-c4cccnc4)sc3c2)cc1SCC(F)(F)F [Example 19, 6-{2,4-Dimethyl-5-[(2,2,2-trifluoroethyl)sulphanyl]phenyl}-2-(pyridin-3-yl)[1,3]thiazolo[4,5-b]pyridine] | – | – | 3.97 | 3.95 | 100% | –
9 | Cc1ccccc1-c1cnc2nc(-c3cccnc3)sc2c1 [Example 2, 6-(2-Methylphenyl)-2-(pyridin-3-yl)[1,3]thiazolo[4,5-b]pyridine] | – | – | 2.76 | 2.8 | 100% | –
10 | Fc1ccccc1-c1cnc2nc(-c3cccnc3)sc2c1 [Example 5] | 2.51 | 2.54 | – | – | – | –
11 | CCSc1ccc(-c2cnc3nc(-c4cccnc4)sc3c2)cc1 [Example 11] | 3.34 | 3.37 | – | – | – | –
12 | CC[S+]([O-])c1ccccc1-c1cnc2nc(-c3ccc[n+]([O-])c3)sc2c1 (stereo not shown) [Example 16, 6-[2-(Ethylsulphinyl)phenyl]-2-(1-oxidopyridin-3-yl)[1,3]thiazolo[4,5-b]pyridine] | – | – | 1.86 | 1.87 | 90% | –
13 | Cc1cc(F)c(-c2cnc3nc(-c4cccnc4)sc3c2)cc1SCC(F)(F)F [Example 22, 6-{2-Fluoro-4-methyl-5-[(2,2,2-trifluoroethyl)sulphanyl]phenyl}-2-(pyridin-3-yl)[1,3]thiazolo[4,5-b]pyridine] | – | – | 3.83 | 3.78 | 100% | efficacy [3]: 90%
14 | CC[S+]([O-])c1ccc(-c2cnc3nc(-c4cccnc4)sc3c2)cc1 (stereo not shown) [Example 12] | 1.58 | 1.86 | – | – | – | –
15 | CCSc1ccccc1-c1cnc2nc(-c3cccnc3)sc2c1 [Example 14, 6-[2-(Ethylsulphanyl)phenyl]-2-(pyridin-3-yl)[1,3]thiazolo[4,5-b]pyridine] | – | – | 3.12 | 3.13 | – | –
16 | Cc1ccc(-c2cnc3nc(-c4cccnc4)sc3c2)cc1[S+]([O-])CC(F)(F)F (stereo not shown) [Example 18] | 2.4 | 2.34 | – | – | – | efficacy [2]: 90%
17 | c1ccc(-c2cnc3nc(-c4cccnc4)sc3c2)cc1 [Example 1] | 2.47 | 2.56 | – | – | – | –
18 | Cc1cccc(-c2cnc3nc(-c4cccnc4)sc3c2)c1 [Example 3] | 2.91 | 2.95 | – | – | – | –
19 | Cc1ccc(-c2cnc3nc(-c4cccnc4)sc3c2)cc1 [Example 4] | 2.91 | 2.96 | – | – | – | efficacy [2]: 100%
20 | CCSc1cccc(-c2cnc3nc(-c4cccnc4)sc3c2)c1 [Example 10] | – | 3.36 | – | – | – | –
21 | CSc1cccc(-c2cnc3nc(-c4cccnc4)sc3c2)c1 [Example 9] | – | 2.96 | – | – | – | efficacy [2]: 100%
22 | c1ccc(Nc2cnc3nc(-c4cccnc4)sc3c2)cc1 [Example 24] | 2.25 | 2.27 | – | – | – | –
23 | Clc1ccc(-c2cnc3nc(-c4cccnc4)sc3c2)cc1 [Example 8] | 2.98 | 3.03 | – | – | – | –

Continued, in another order:

Row | LogP[a] [1, 4] | logP[b] [1, 5] | chromatographic logP [1, 6] | chromatographic logP [1, 7] | Compound | pest or weed control at 500 g/ha [2] | also measured
24 | – | – | 1.39 | – | CSCCNC(=O)c1cnc2nc(-c3cccnc3)sc2c1 [Example 52, N-[2-(Methylsulphanyl)ethyl]-2-(pyridin-3-yl)[1,3]thiazolo[4,5-b]pyridine-6-carboxamide] | – | –
25 | – | – | – | 1.95 | Brc1cnc2nc(-c3cccnc3)sc2c1 [I-a-1, 6-bromo-2-(pyridin-3-yl)[1,3]thiazolo[4,5-b]pyridine] | – | –
26 | – | – | 3.53 | – | O=C(Nc1cccc(SC(F)(F)F)c1)c1cnc2nc(-c3cncc(F)c3)sc2c1 [Example 57, 2-(5-Fluoropyridin-3-yl)-N-{3-[(trifluoromethyl)sulphanyl]phenyl}[1,3]thiazolo[4,5-b]pyridine-6-carboxamide] | – | –
27 | – | – | 2.66 | 2.69 | Clc1cccc(Nc2cnc3nc(-c4cccnc4)sc3c2)c1 [Example 25, N-(3-Chlorophenyl)-2-(pyridin-3-yl)[1,3]thiazolo[4,5-b]pyridin-6-amine] | 90% | –
28 | – | – | – | 1.62 | c1cncc(-c2nc3ncc(-n4cccn4)cc3s2)c1 [Example 26, 6-(1H-Pyrazol-1-yl)-2-(pyridin-3-yl)[1,3]thiazolo[4,5-b]pyridine] | 90% | –
29 | – | – | 0.84 | – | CS(=O)(=O)CCNC(=O)c1cnc2nc(-c3cccnc3)sc2c1 [Example 54, N-[2-(Methylsulphonyl)ethyl]-2-(pyridin-3-yl)[1,3]thiazolo[4,5-b]pyridine-6-carboxamide] | – | –
30 | 2.48 | 2.53 | – | – | FC(F)(F)c1cnn(-c2cnc3nc(-c4cccnc4)sc3c2)c1 [Example 28] | – | –
31 | – | – | 0.97 | 1.21 | Cc1nn(-c2cnc3nc(-c4cccnc4)sc3c2)c(=S)n1C [Example 31, 4,5-Dimethyl-2-[2-(pyridin-3-yl)[1,3]thiazolo[4,5-b]pyridin-6-yl]-2,4-dihydro-3H-1,2,4-triazole-3-thione] | 90% | –
32 | – | – | 1.23 | 1.42 | Cc1nn(-c2cnc3nc(-c4cccnc4)sc3c2)c(=O)n1C [Example 30, 4,5-Dimethyl-2-[2-(pyridin-3-yl)[1,3]thiazolo[4,5-b]pyridin-6-yl]-2,4-dihydro-3H-1,2,4-triazol-3-one] | 100% | –
33 | 1.00 | 1.07 | – | – | Cn1cnn(-c2cnc3nc(-c4cccnc4)sc3c2)c1=S [Example 29] | – | –
34 | – | – | – | 2.57 | FC(F)(F)c1ccn(-c2cnc3nc(-c4cccnc4)sc3c2)n1 [Example 27] | – | –
35 | – | – | 2.54 | – | O=C(Nc1cccc([S+]([O-])C(F)(F)F)c1)c1cnc2nc(-c3cncc(F)c3)sc2c1 (stereo not shown) [Example 58, 2-(5-Fluoropyridin-3-yl)-N-{3-[(trifluoromethyl)sulphinyl]phenyl}[1,3]thiazolo[4,5-b]pyridine-6-carboxamide] | – | –
